In ChEMBL document CHEMBL1201862, “PubChem BioAssay data set” (2004):
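All cell lines were grown in 96-well plates and treated with compound for 48 hours. GI50: concentration for 50% inhibition of growth.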 Activity calls are given as the source filed them. No stated cut-off is given here; in the data, active = GI50 up to about 1.1 µM and inactive = higher.

Tests used:
Experiment in all cases: NCI-60 cell line screen, 48 h
RXF 393 = test system: RXF 393
SNB-19 = test system: SNB-19
T47D = test system: T47D
CCRF-CEM = test system: CCRF-CEM
786-0 = test system: 786-0
EKVX = test system: EKVX
IGROV-1 = test system: IGROV-1
UO-31 = test system: UO-31
UACC-257 = test system: UACC-257
U-251 = test system: U-251
PC-3 = test system: PC-3
Hs-578T = test system: Hs-578T
COLO 205 = test system: COLO 205
A498 = test system: A498
BT-549 = test system: BT-549
HOP-92 = test system: HOP-92
HOP-62 = test system: HOP-62
HCT-15 = test system: HCT-15
NCI-H522 = test system: NCI-H522
SR = test system: SR

Row | Structure (SMILES) | GI50 (RXF 393) | GI50 (SNB-19) | GI50 (T47D) | GI50 (CCRF-CEM) | GI50 (786-0) | GI50 (EKVX) | GI50 (IGROV-1) | GI50 (UO-31) | GI50 (UACC-257) | GI50 (U-251) | GI50 (PC-3) | GI50 (Hs-578T) | GI50 (COLO 205) | GI50 (A498) | GI50 (BT-549) | GI50 (HOP-92) | GI50 (HOP-62) | GI50 (HCT-15) [µM] | GI50 (NCI-H522) | GI50 (SR)
1 | N#CC12COC3(CCCCC3C1(C#N)C#N)OC2=N (stereo unspecified) | 13.1 µM (inactive) | 17.8 µM (inactive) | 11 µM (inactive) | 3.53 µM (inactive) | 19.2 µM (inactive) | 18.5 µM (inactive) | 14.6 µM (inactive) | 15.2 µM (inactive) | 17.4 µM (inactive) | 8.87 µM (inactive) | 13.8 µM (inactive) | 17.1 µM (inactive) | 6.4 µM (inactive) | 18.2 µM (inactive) | 15.4 µM (inactive) | 5.06 µM (inactive) |  |  |  | 
2 | Nc1nc(N)c2nn(-c3ccc(C(=O)O)cc3)nc2n1 | > 100 µM (inactive) | > 100 µM (inactive) | > 100 µM (inactive) | > 100 µM (inactive) | > 100 µM (inactive) | > 100 µM (inactive) | > 100 µM (inactive) | > 100 µM (inactive) | > 100 µM (inactive) | > 100 µM (inactive) | > 100 µM (inactive) | > 100 µM (inactive) | > 100 µM (inactive) | > 100 µM (inactive) | > 100 µM (inactive) | > 100 µM (inactive) | > 100 µM (inactive) | > 100 | > 100 µM (inactive) | 
3 | COc1cc(/C=N/NC(=O)c2c(Cl)c(Cl)c(Cl)c(Cl)c2-c2nc3ccccc3[nH]2)ccc1O | 20.2 µM (inactive) | 30.5 µM (inactive) | 0.56 µM (active) | 21.9 µM (inactive) | 28 µM (inactive) | 19.2 µM (inactive) | 14 µM (inactive) | 22.4 µM (inactive) | 29.3 µM (inactive) |  | 29.4 µM (inactive) | 44 µM (inactive) | 22.3 µM (inactive) | 27.5 µM (inactive) | 21.1 µM (inactive) | 10.8 µM (inactive) | 21.6 µM (inactive) | 22 | 30.6 µM (inactive) | 
4 | O=C1c2c(ccc3c2CCC3)CC1Cc1ccc2c(c1)CCC2 (stereo unspecified) | 25.7 µM (inactive) | 48.5 µM (inactive) | 3.05 µM (inactive) | 14.5 µM (inactive) | 32.3 µM (inactive) | 28.1 µM (inactive) | 28.6 µM (inactive) | 56.6 µM (inactive) | 18.5 µM (inactive) | 24.2 µM (inactive) |  | 10 µM (inactive) | 20.3 µM (inactive) | 27.1 µM (inactive) | 51.6 µM (inactive) |  | 28.1 µM (inactive) | 11 |  | 5.27 µM (inactive)
5 | C=CCCC(=O)N1CCC(C(=O)OCC)C1=O (stereo unspecified) | > 100 µM (inactive) | > 100 µM (inactive) | > 100 µM (inactive) | > 100 µM (inactive) | > 100 µM (inactive) | > 100 µM (inactive) | > 100 µM (inactive) | > 100 µM (inactive) | > 100 µM (inactive) | > 100 µM (inactive) | > 100 µM (inactive) | > 100 µM (inactive) | > 100 µM (inactive) | > 100 µM (inactive) | > 100 µM (inactive) |  | > 100 µM (inactive) | > 100 | > 100 µM (inactive) | 
6 | CC(=O)N1C(c2[nH]c3ccccc3c2Cc2ccccc2)CCN1c1ccccc1 (stereo unspecified) | 4.16 µM (inactive) | > 10 µM (inactive) | 6.41 µM (inactive) | 3.66 µM (inactive) | > 10 µM (inactive) | > 10 µM (inactive) | > 10 µM (inactive) | 8.73 µM (inactive) | > 10 µM (inactive) |  | 3.24 µM (inactive) | 9.31 µM (inactive) | 8.81 µM (inactive) |  | > 10 µM (inactive) |  | > 10 µM (inactive) | > 10 | 8.47 µM (inactive) | 4.81 µM (inactive)
7 | C=C(C)CC1=C(OCC)C(OC)(OCC)C1=O (stereo unspecified) |  | > 100 µM (inactive) | > 100 µM (inactive) | > 100 µM (inactive) | > 100 µM (inactive) | > 100 µM (inactive) | > 100 µM (inactive) | > 100 µM (inactive) | > 100 µM (inactive) | > 100 µM (inactive) | > 100 µM (inactive) | > 100 µM (inactive) | > 100 µM (inactive) | > 100 µM (inactive) | 40.3 µM (inactive) | > 100 µM (inactive) | > 100 µM (inactive) | > 100 | 47.8 µM (inactive) | 
8 | CCN(c1cccc(NC(=S)Nc2ccccc2N(CC)c2cc(-c3ccccc3)no2)c1)c1cc(-c2ccccc2)no1 | > 100 µM (inactive) | > 100 µM (inactive) | > 100 µM (inactive) | > 100 µM (inactive) | > 100 µM (inactive) | > 100 µM (inactive) | > 100 µM (inactive) | > 100 µM (inactive) | > 100 µM (inactive) | > 100 µM (inactive) | > 100 µM (inactive) | > 100 µM (inactive) | > 100 µM (inactive) |  | > 100 µM (inactive) | > 100 µM (inactive) | > 100 µM (inactive) | > 100 | > 100 µM (inactive) | > 100 µM (inactive)
9 | CC(C)(O)C1CC(=O)C(C)(C2C(O)CC3(C)C4CC=C5C(CCC(O)C5(C)C)C4(C)C(=O)CC23C)O1 (stereo unspecified) | > 100 µM (inactive) | > 100 µM (inactive) | > 100 µM (inactive) |  | > 100 µM (inactive) | > 100 µM (inactive) | > 100 µM (inactive) | > 100 µM (inactive) | > 100 µM (inactive) | > 100 µM (inactive) | > 100 µM (inactive) | > 100 µM (inactive) | > 100 µM (inactive) | > 100 µM (inactive) | > 100 µM (inactive) | 91.8 µM (inactive) | > 100 µM (inactive) | > 100 | > 100 µM (inactive) | 
10 | O=[N+]([O-])c1cccc2nc3ccccc3c(NCCCCNc3c4ccccc4nc4cccc([N+](=O)[O-])c34)c12 | 0.0188 µM (active) | 0.0302 µM (active) | 0.0491 µM (active) | < 0.016 µM (active) | 0.0164 µM (active) | 0.104 µM (active) | 0.118 µM (active) | 0.129 µM (active) | 0.146 µM (active) | 0.0261 µM (active) | 0.0719 µM (active) | 0.191 µM (active) | 0.0199 µM (active) |  | 0.242 µM (active) | 0.0233 µM (active) | 0.042 µM (active) | 0.0204 | 0.0214 µM (active) | 
11 | O=c1c2c3c(sc2nc2n1N=C(c1ccc(Br)cc1)CS2)CCCC3 | > 100 µM (inactive) | > 100 µM (inactive) | > 100 µM (inactive) | > 100 µM (inactive) | > 100 µM (inactive) | > 100 µM (inactive) | > 100 µM (inactive) | > 100 µM (inactive) | > 100 µM (inactive) | > 100 µM (inactive) | > 100 µM (inactive) |  | > 100 µM (inactive) | > 100 µM (inactive) | > 100 µM (inactive) | > 100 µM (inactive) | > 100 µM (inactive) | > 100 | > 100 µM (inactive) | > 100 µM (inactive)
12 | CC(=O)OCC1OC(Oc2cc(C)c(O)cc2C/C=C(\C)CC/C=C(\C)CC(=O)CC(C)C)C(O)C(OC(C)=O)C1OC(C)=O (stereo unspecified) | 9.77 µM (inactive) | 7.93 µM (inactive) | 9.42 µM (inactive) | 9.82 µM (inactive) | 21 µM (inactive) | 4.6 µM (inactive) | 29.4 µM (inactive) | 3.28 µM (inactive) | 12.1 µM (inactive) | 13.6 µM (inactive) | 14.2 µM (inactive) | 11.9 µM (inactive) | 10.2 µM (inactive) | 11 µM (inactive) | 10.6 µM (inactive) | 45.8 µM (inactive) | 11.4 µM (inactive) | 14.3 | 13.6 µM (inactive) | 
13 | COc1cc(OC)c(-c2ccc(OCc3ccccc3)c3c(OC)cc(C)cc23)c2c1C(C)=N[C@H](C)C2 | 2.77 µM (inactive) | 2.68 µM (inactive) |  | 1.99 µM (inactive) | 2.1 µM (inactive) | 2.4 µM (inactive) | 1.87 µM (inactive) | 1.14 µM (inactive) | 2.17 µM (inactive) | 2.08 µM (inactive) | 2.1 µM (inactive) | 2.29 µM (inactive) | 2.28 µM (inactive) | 2.16 µM (inactive) | 3.31 µM (inactive) | 1.64 µM (inactive) | 2.26 µM (inactive) | 2.14 | 1.82 µM (inactive) | 1.16 µM (inactive)
14 | CCCCCCCCCCCCOP(=O)(O)OP(=O)(O)OCC1OC(n2cc(C)c(=O)[nH]c2=O)CC1O (stereo unspecified) | > 100 µM (inactive) | > 100 µM (inactive) | > 100 µM (inactive) | > 100 µM (inactive) | > 100 µM (inactive) | > 100 µM (inactive) | > 100 µM (inactive) | > 100 µM (inactive) | > 100 µM (inactive) | > 100 µM (inactive) | > 100 µM (inactive) | > 100 µM (inactive) | > 100 µM (inactive) | > 100 µM (inactive) | > 100 µM (inactive) | > 100 µM (inactive) | > 100 µM (inactive) | > 100 | > 100 µM (inactive) | 
15 | CC1(C)SC2C(NC(=O)C(C(=O)O)c3ccccc3)C(=O)N2C1C(=O)O (stereo unspecified) | > 100 µM (inactive) | > 100 µM (inactive) | > 100 µM (inactive) | > 100 µM (inactive) | > 100 µM (inactive) | > 100 µM (inactive) | > 100 µM (inactive) | > 100 µM (inactive) | > 100 µM (inactive) | > 100 µM (inactive) | > 100 µM (inactive) | > 100 µM (inactive) | > 100 µM (inactive) | > 100 µM (inactive) | > 100 µM (inactive) |  | > 100 µM (inactive) | > 100 |  | 
